We go through seven molecules from patent US20010056084A1, “MGluR5 antagonists for the treatment of pain and anxiety” (priority 1998, published 2001).

For one assay, the system named is naive rat hind paw. The assay is described as follows: naive rat hind paw test of mechanical hyperalgesia (Randall and Selitto), glutamate receptor agonists. The format is in vivo.
Assay [1] concerns DHPG-induced hyperalgesia in the rat hind paw. Nature of the assay: DHPG-induced hyperalgesia in the rat hind paw (Randall and Selitto), co-administration. It is filed as in vivo. The settings on record: co-administration with DHPG to the rat hind paw.
Another assay deals with rat. As to conditions: intrathecally administered; cited from earlier work.

`Cc1o[nH]c(=O)c1CC(N)C(=O)O` (centres unmarked) [AMPA]: the “rank order of potency as hyperalgesic agents” value (from here on “rank order of potency”) in the assay on naive rat hind paw was “AMPA>(±)-2-aminobicyclo[3.1.0]hexane-2,6-dicarboxylic acid (LY 314582)”.
Take `N[C@H](C(=O)O)c1ccc(C(=O)O)cc1` [(S)-4C-PG, (S)-4-carboxyphenylglycine]: the “inhibition of DHPG-induced hyperalgesia” value in assay [1] is reported as “limited effect”.
Consider `N[C@@H](CCC(=O)O)C(=O)O` [glutamate], for which the “rank order of potency” value with naive rat hind paw was “glutamate ˜2-chloro-3-hydroxyphenylglycine (CHPG)”.
In the case of `N[C@@H](CCP(=O)(O)O)C(=O)O` [L-AP4, L-4-phosphono-2-amino-butiric acid], the “rank order of potency” value in the assay on naive rat hind paw is given as “>L-4-phosphono-2-amino-butiric acid (L-AP4)”.
Take `NC(C(=O)O)c1cc(O)cc(O)c1` (centres unmarked) [DHPG, 3,5-dihydroxyphenyiglycine]: the spontaneous nociceptive responses entry with rat is “induced an increase in spontaneous nocicepfive responses”. Further, the “rank order of potency” value in the assay on naive rat hind paw is on record as “DHPG>NMDA”.
As for `NC1(C(=O)O)CCC2C(C(=O)O)C21` (racemic) [LY 314582, (±)-2-aminobicyclo[3.1.0]hexane-2,6-dicarboxylic acid], in the assay on naive rat hind paw, the “rank order of potency” value is on record as “(LY 314582)>L-4-phosphono-2-amino-butiric acid (L-AP4)”.
With `CN[C@H](CC(=O)O)C(=O)O` [NMDA], the “rank order of potency” value in the assay with naive rat hind paw is recorded as “NMDA>AMPA”.
